Measurements reported in article PMC7587962, “Evaluation of Cytotoxicity and α-Glucosidase Inhibitory Activity of Amide and Polyamino-Derivatives of Lupane Triterpenoids” (Molecules, 2020).

Columns and labels:
[1] = tested on: Rat Liver ER Neutral α-Glucosidase; assay: Endoplasmic reticulum α-glucosidase activity assay; type: biochemical
Text: Betulinic acid inhibits yeast α-glucosidase activity and interferes with N-linked glycan modifications to cell-surface intercellular adhesion molecule-1 (ICAM-1) in human lung carcinoma A549 cells in a similar manner to castanospermine, an inhibitor of endoplasmic reticulum α-glucosidases I and II [66]. […] Taken together, these considerations prompted us to evaluate a series of lupanes with amide function or polyamine chain 11, 12, 16, 18, and 22–26 for α-glucosidase inhibition. Initially, they were screened against α-glucosidase of S. cerevisiae as an accessible and high-throughput model. Confirmatory experiments were performed on isolated rough endoplasmic reticulum vesicles from rat liver, which contain neutral α-glucosidases I and II in a membrane-bound form.
Endoplasmic reticulum was isolated from hepatocytes of decapitated male Sprague-Dawley rats, which were starved overnight and sacrificed the next morning. All experiments were approved by Volgograd regional ethic committee. The whole procedure was performed at 4 °C. In brief, a fresh tissue sample from an animal was washed twice with 10 mL of PBS to remove residual blood. The tissue was placed on a paper towel in order to absorb excess liquid and blood clots, if present. It was cut further into small pieces (1.5–2 cm) and washed once more. […] Homogenate was centrifuged at 1000× g for 10 min at 4 °C. After removal of the floating lipid layer by aspiration, supernatant was separated and centrifuged at 12,000× g for 15 min. at 4 °C. The supernatant fraction, which is the post mitochondrial fraction (PMF), was used for isolation of rough endoplasmic reticulum (RER) enriched microsomes by precipitation with 8 mM CaCl2 added dropwise. The final concentration of CaCl2 was 7 mM. Resulting sample was centrifuged at 8000 g for 10 min. at 4 °C. The supernatant was discarded, and the pellet was suspended in isotonic extraction buffer (0.3 mL of buffer for each g of original tissue). The suspension was homogenized completely to afford RER enriched microsomes. In a 96-well flat transparent plate 25 µL of the isolated RER microsomes were incubated with 50 µL of test compounds in 67 mM PBS (pH 6.8) at 37 °C for 10 min. Then, p-nitrophenyl-α-D-glucopyranoside (Sigma #N1377, St. Louis, MO, USA) was added to 1 mM final concentration and increase in absorbance was recorded for 42 min at 405 nm wavelength with Infinite M200 PRO microplate reader (Tecan, Austria). Concentration of RER microsomes was adjusted to achieve an increase in optical density of ~0.2 in control samples after 30 min. of incubation. Test compounds were prepared as described above for the yeast α-glucosidase assay.

CCRF-CEM = tested on: CCRF-CEM; parameters: method as in PMID 25405285; details: standard drugs used by NCI as control; cited from earlier work
A549/ATCC = tested on: A549/ATCC; parameters: method as in PMID 25405285; details: standard drugs used by NCI as control; cited from earlier work
EKVX = tested on: EKVX; parameters: method as in PMID 25405285; details: standard drugs used by NCI as control; cited from earlier work
HOP-62 = tested on: HOP-62; parameters: method as in PMID 25405285; details: standard drugs used by NCI as control; cited from earlier work
NCI-H23 = tested on: NCI-H23; parameters: method as in PMID 25405285; details: standard drugs used by NCI as control; cited from earlier work
HCC-2998 = tested on: HCC-2998; parameters: method as in PMID 25405285; details: standard drugs used by NCI as control; cited from earlier work
KM12 = tested on: KM12; parameters: method as in PMID 25405285; details: standard drugs used by NCI as control; cited from earlier work
SW-620 = tested on: SW-620; parameters: method as in PMID 25405285; details: standard drugs used by NCI as control; cited from earlier work
SF-268 = tested on: SF-268; parameters: method as in PMID 25405285; details: standard drugs used by NCI as control; cited from earlier work
M14 = tested on: M14; parameters: method as in PMID 25405285; details: standard drugs used by NCI as control; cited from earlier work
SK-MEL-2 = tested on: SK-MEL-2; parameters: method as in PMID 25405285; details: standard drugs used by NCI as control; cited from earlier work
SK-MEL-28 = tested on: SK-MEL-28; parameters: method as in PMID 25405285; details: standard drugs used by NCI as control; cited from earlier work
UACC-257 = tested on: UACC-257; parameters: method as in PMID 25405285; details: standard drugs used by NCI as control; cited from earlier work
UACC-62 = tested on: UACC-62; parameters: method as in PMID 25405285; details: standard drugs used by NCI as control; cited from earlier work
IGROV1 = tested on: IGROV1; parameters: method as in PMID 25405285; details: standard drugs used by NCI as control; cited from earlier work
OVCAR-8 = tested on: OVCAR-8; parameters: method as in PMID 25405285; details: standard drugs used by NCI as control; cited from earlier work
NCI/ADR-RES = tested on: NCI/ADR-RES; parameters: method as in PMID 25405285; details: standard drugs used by NCI as control; cited from earlier work
SK-OV-3 = tested on: SK-OV-3; parameters: method as in PMID 25405285; details: standard drugs used by NCI as control; cited from earlier work
A498 = tested on: A498; parameters: method as in PMID 25405285; details: standard drugs used by NCI as control; cited from earlier work
ACHN = tested on: ACHN; parameters: method as in PMID 25405285; details: standard drugs used by NCI as control; cited from earlier work
CAKI-1 = tested on: CAKI-1; parameters: method as in PMID 25405285; details: standard drugs used by NCI as control; cited from earlier work
SN12C = tested on: SN12C; parameters: method as in PMID 25405285; details: standard drugs used by NCI as control; cited from earlier work
PC-3 = tested on: PC-3; parameters: method as in PMID 25405285; details: standard drugs used by NCI as control; cited from earlier work
MDA-MB-231/ATCC = tested on: MDA-MB-231/ATCC; parameters: method as in PMID 25405285; details: MDA-MB-31/ATCC; standard drugs used by NCI as control; cited from earlier work
HS 578T = tested on: HS 578T; parameters: method as in PMID 25405285; details: standard drugs used by NCI as control; cited from earlier work
BT-549 = tested on: BT-549; parameters: method as in PMID 25405285; details: standard drugs used by NCI as control; cited from earlier work
MDA-MB-468 = tested on: MDA-MB-468; parameters: method as in PMID 25405285; details: standard drugs used by NCI as control; cited from earlier work
HL-60(TB) = details: standard drugs used by NCI as control; cited from earlier work

In the case of `C=C(C)[C@@H]1CC[C@]2(C(=O)NCCNCCNCCN)CC[C@]3(C)[C@H](CC[C@@H]4[C@@]5(C)CCC(=O)C(C)(C)[C@@H]5CC[C@]43C)[C@@H]12` [Compound 11], the “Rat Liver ER Neutral α-Glucosidase Inhibition, m ± SD” value ([1]; 10 μM) is reported as 15.03 ± 8.98% and the “Rat Liver ER Neutral α-Glucosidase Inhibition, m ± SD” value ([1]; 100 μM) is reported as 43.60 ± 7.98 %.

For `COc1cccc2c1C(=O)c1c(O)c3c(c(O)c1C2=O)C[C@@](O)(C(=O)CO)C[C@@H]3O[C@H]1C[C@H](N)[C@H](O)[C@H](C)O1` [DRB, doxorubicin], the GI50 (CCRF-CEM) is listed as 80 nM, the GI50 (A549/ATCC) is listed as 60 nM and the GI50 (EKVX) is listed as 410 nM. For the same compound, the GI50 (HOP-62) was 70 nM, the GI50 (NCI-H23) was 150 nM and the GI50 (HCC-2998) was 260 nM. The GI50 (KM12) was 270 nM, the GI50 (SW-620) was 90 nM and the GI50 (SF-268) was 100 nM. The GI50 (M14) was 180 nM, the GI50 (SK-MEL-2) was 170 nM and the GI50 (SK-MEL-28) was 210 nM. The GI50 (UACC-257) was 140 nM, the GI50 (UACC-62) was 120 nM and the GI50 (IGROV1) was 170 nM. The GI50 (OVCAR-8) was 100 nM, the GI50 (NCI/ADR-RES) was 7160 nM and the GI50 (SK-OV-3) was 220 nM. The GI50 (A498) was 100 nM, the GI50 (ACHN) was 80 nM and the GI50 (CAKI-1) was 950 nM. The GI50 (SN12C) was 70 nM, the GI50 (PC-3) was 320 nM and the GI50 (MDA-MB-231/ATCC) was 510 nM. For the same compound, the GI50 (HS 578T) was 330 nM, the GI50 (BT-549) was 230 nM and the GI50 (MDA-MB-468) was 50 nM. The GI50 (HL-60(TB)) was 190 nM.
